# Target: BACE (Homo sapiens, UniProt P56817)
# Experiment: Ki Determination for the Inhibition of BACE (FS-1 peptide fluorescence cleavage assay)
# Format: biochemical
# Settings: apparent Ki; 50 nM BACE, 10 μM FS-1 substrate, 0.1M sodium acetate pH 4.5
# How it was run: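 Apparent Ki values derive from fitting fluorescence progress data (355 nm excitation, 495 nm emission) of FS-1 peptide cleavage to an integrated competitive tight-binding model. Reactions held 50 nM BACE, 10 μM substrate and inhibitor in 2% DMSO, pH 4.5 acetate buffer, with a 15 min enzyme-compound preincubation at room temperature.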
# Chain of BACE (P56817 46-501): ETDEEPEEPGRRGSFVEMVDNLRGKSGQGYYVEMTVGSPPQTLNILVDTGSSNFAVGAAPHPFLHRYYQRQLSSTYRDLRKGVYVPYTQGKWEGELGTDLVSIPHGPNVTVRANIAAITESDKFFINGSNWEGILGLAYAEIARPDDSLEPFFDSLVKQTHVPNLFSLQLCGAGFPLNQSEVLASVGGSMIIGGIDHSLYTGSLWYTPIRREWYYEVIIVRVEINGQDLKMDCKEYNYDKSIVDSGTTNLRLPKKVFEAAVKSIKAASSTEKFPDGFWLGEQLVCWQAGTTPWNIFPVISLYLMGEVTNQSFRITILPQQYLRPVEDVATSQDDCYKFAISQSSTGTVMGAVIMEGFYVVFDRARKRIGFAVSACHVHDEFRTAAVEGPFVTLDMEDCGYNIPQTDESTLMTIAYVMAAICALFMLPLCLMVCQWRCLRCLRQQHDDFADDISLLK
row,Ki [µM],Structure (SMILES)
1,< 3,"FC(F)Oc1ccccc1COc1ccc2c(c1)c1c(n2Cc2cccc3ccccc23)CNCC1 [Compound 518, 6-(2-Difluoromethoxy-benzyloxy)-9-naphthalen-1-ylmethyl-2,3,4,9-tetrahydro-1H-b-carboline]"
2,< 3,"O=C(Nc1cc(-c2ccc(C(F)(F)F)cc2)ccc1N1CCNCC1)c1cccc2ccccc12 [Compound 129, Naphthalene-1-carboxylic acid (4-piperazin-1-yl-4′-trifluoromethyl-biphenyl-3-yl)-amide]"
3,< 3,"FC(F)(F)c1ccccc1OCc1cc(C2=CCNCC2)c(COc2ccccc2C(F)(F)F)cc1Br [Compound 333, 4-[4-Bromo-2,5-bis-(2-trifluoromethyl-phenoxymethyl)-phenyl]-1,2,3,6-tetrahydro-pyridine]"
4,3 to 30,"O=C(Nc1cc(-c2cccnc2)ccc1N1CCNCC1)c1cccc2ccccc12 [Compound 110, Naphthalene-1-carboxylic acid (2-piperazin-1-yl-5-pyridin-3-yl-phenyl)-amide]"
5,3 to 30,"O=C(Nc1cc(C(F)(F)F)ccc1N1CCNCC1)c1nccc2ccccc12 [Compound 102, Isoquinoline-1-carboxylic acid (2-piperazin-1-yl-5-trifluoromethyl-phenyl)-amide]"
6,3 to 30,"O=C(Nc1cc(-c2cc(F)c(S(=O)(=O)NCc3ccccc3)cc2F)ccc1N1CCNCC1)c1cccc2ccccc12 [Compound 164, Naphthalene-1-carboxylic acid (4′-benzylsulfamoyl-2′,5′-difluoro-4-piperazin-1-yl-biphenyl-3-yl)-amide]"
7,3 to 30,"O=C(Nc1ccc2ccccc2c1)C1CNCCC1c1ccc(COc2ccccc2C(F)(F)F)cc1 (stereo not drawn) [Compound 216, 4-[4-(2-Trifluoromethyl-phenoxymethyl)-phenyl]-piperidine-3-carboxylic acid naphthalen-2-ylamide]"
8,< 3,"O=C(c1cccc2ccccc12)n1c2c(c3cc(OCc4cccc(C(F)(F)F)c4)ccc31)CCNC2 [Compound 508, Naphthalen-1-yl-[6-(3-trifluoromethyl-benzyloxy)-1,2,3,4-tetrahydro-b-carbolin-9-yl]-methanone]"
9,3 to 30,"O=C(Nc1cc(COc2ccccc2C(F)(F)F)ccc1N1CCNCC1)c1cccc2ccccc12 [Compound 125, Naphthalene-1-carboxylic acid [2-piperazin-1-yl-5-(2-trifluoromethyl-phenoxymethyl)-phenyl]-amide]"
10,< 3,"O=C(OCc1ccccc1-c1ccc(C2=CCNCC2)c(COc2ccccc2C(F)(F)F)c1)c1ccccc1 [Compound 379, Benzoic acid 4′-(1,2,3,6-tetrahydro-pyridin-4-yl)-3′-(2-trifluoromethyl-phenoxymethyl)-biphenyl-2-yl methyl ester]"
11,< 3,"FC(F)(F)c1cccc(COc2ccc3c(c2)c2c(n3Cc3cccc4ccccc34)CNCC2)c1 [Compound 509, 9-Naphthalen-1-ylmethyl-6-(3-trifluoromethyl-benzyloxy)-2,3,4,9-tetrahydro-1H-b-carboline]"
12,3 to 30,"Nc1cccc2c(NC(=O)c3ccc(COc4ccccc4C(F)(F)F)cc3C3=CCNCC3)cccc12 [Compound 310, N-(5-Amino-naphthalen-1-yl)-2-(1,2,3,6-tetrahydro-pyridin-4-yl)-4-(2-trifluoromethyl-phenoxymethyl)-benzamide]"
13,3 to 30,"O=C(Nc1cc(-c2ccccc2Cl)ccc1N1CCNCC1)c1cccc2ccccc12 [Compound 122, Naphthalene-1-carboxylic acid (2′-chloro-4-piperazin-1-yl-biphenyl-3-yl)-amide]"
14,< 3,"FC(F)(F)c1ccccc1OCc1ccc(COc2ccc3ccccc3c2)c(C2=CCNCC2)c1 [Compound 321, 4-[2-(Naphthalen-2-yloxymethyl)-5-(2-trifluoromethyl-phenoxymethyl)-phenyl]-1,2,3,6-tetrahydro-pyridine]"
15,< 3,"O=C(c1ccc2ccccc2c1)n1c2c(c3cc(OCc4ccccc4OC(F)F)ccc31)CCNC2 [Compound 530, [6-(2-Difluoromethoxy-benzyloxy)-1,2,3,4-tetrahydro-b-carbolin-9-yl]-naphthalen-2-yl-methanone]"

# Reference: patent US20030095958A1, “Inhibitors of bace” (priority 2001, published 2003)
